Key:
[1] = system: healthy volunteers; test: Phase 1 safety and tolerability, single ascending dose (SAD) cohorts; type: in vivo, human
Description: Parts A and B of this phase 1, randomized, double-blind, placebo-controlled SAD and MAD oral dose study with JNT-517 were conducted in healthy volunteers. The primary objective for these studies was to assess the safety and tolerability of single and multiple doses of JNT-517 in healthy participants. The secondary objective for these studies was to assess the PK of single and multiple oral doses of JNT-517.
(§1) Eligible participants included males and females 18 to 55 years of age, medically healthy with no clinically notable medical history, a BMI of 18–40 kg/m^2 and total body weight > 50 kg (110 lbs), and who have been nonsmokers for at least 2 weeks prior to and throughout dosing.
In total, 40 participants who were healthy adult were randomized to receive JNT-517 (10–170 mg) or placebo (3:1 ratio) in 5 cohorts of 8 participants as SADs. […] Within each SAD cohort, a sentinel group of 2 participants were initially randomized to receive JNT-517 or placebo in a 1:1 ratio. Once safety was confirmed for these 2 sentinel participants over a 48-hour observation period, the remaining 6 participants in the same cohort were randomized 5:1 to receive JNT-517 or placebo. Both JNT-517 and placebo were administered as an on-site compounded suspension.
(§2) In both SAD and MAD studies, safety and tolerability were assessed by AE monitoring, clinical laboratory tests (blood chemistries, hematology, coagulation, serology, and urinalysis), vital signs, 12-lead electrocardiograms, and physical examinations. Safety assessment and corresponding samples were collected on day-1 prior to dosing and days 1, 2, 3, and 8 for the SAD study or throughout the 14 days of dosing and day 21 for the MAD study.

[2] = system: healthy volunteers; test: Phase 1 safety and tolerability, multiple ascending dose (MAD) cohorts; details: for Any CTCAE Grade ≥ 3 / Any TEAE / Death / SAE / TEAE Anxiety / TEAE Contusion / TEAE Dehydration / TEAE Dizziness / TEAE Drug withdrawal headache / TEAE Dysmenorrhea / TEAE Flushing / TEAE Headache / TEAE Musculoskeletal pain / TEAE Myalgia / TEAE Nausea / TEAE Oropharyngeal pain / TEAE Rash / TEAE Skin injury / TEAE Somnolence / TEAE Swelling of eyelid / TEAE Thirst / TEAE Vascular access site pain / TEAEs leading to IP discontinuation: n = 6
Description: as §1, §2

Which results are given for `NC(=O)N1CCC[C@@H](N(C(=O)NCc2ccc(OC(F)(F)F)cc2F)C2CC2)C1` [JNT-517]?
TEAE Headache ([1]; SAD 170 mg, n = 6): 0 Number (%); TEAE Hematuria ([1]; SAD 170 mg, n = 6): 0 Number (%); TEAE Nausea ([1]; SAD 170 mg, n = 6): 0 Number (%); TEAE Pyrexia ([1]; SAD 170 mg, n = 6): 1 (16.7) Number (%); TEAE Syncope ([1]; SAD 170 mg, n = 6): 0 Number (%); TEAE Upper respiratory tract infection ([1]; SAD 170 mg, n = 6): 0 Number (%); TEAE Urinary tract infection ([1]; SAD 170 mg, n = 6): 1 (16.7) Number (%); incidence of adverse events (AE) ([1]; SAD cohorts, all JNT-517 doses (7 of 30)): 23.3%; safety and tolerability ([1]; healthy participants, SAD 10–170 mg and MAD 14 days): safe and well tolerated; Any CTCAE Grade ≥ 3 ([2]; MAD 25 mg BID): 0 Number (%); Any TEAE ([2]; MAD 25 mg BID): 5 (83.3) Number (%); Death ([2]; MAD 25 mg BID): 0 Number (%); SAE ([2]; MAD 25 mg BID): 0 Number (%); TEAE Anxiety ([2]; MAD 25 mg BID): 0 Number (%); TEAE Contusion ([2]; MAD 25 mg BID): 0 Number (%); TEAE Dehydration ([2]; MAD 25 mg BID): 0 Number (%); TEAE Dizziness ([2]; MAD 25 mg BID): 0 Number (%); TEAE Drug withdrawal headache ([2]; MAD 25 mg BID): 1 (16.7) Number (%); TEAE Dysmenorrhea ([2]; MAD 25 mg BID): 0 Number (%); TEAE Flushing ([2]; MAD 25 mg BID): 0 Number (%); TEAE Headache ([2]; MAD 25 mg BID): 3 (50) Number (%); TEAE Musculoskeletal pain ([2]; MAD 25 mg BID): 1 (16.7) Number (%); TEAE Myalgia ([2]; MAD 25 mg BID): 0 Number (%); TEAE Nausea ([2]; MAD 25 mg BID): 0 Number (%); TEAE Oropharyngeal pain ([2]; MAD 25 mg BID): 1 (16.7) Number (%); TEAE Rash ([2]; MAD 25 mg BID): 0 Number (%); TEAE Skin injury ([2]; MAD 25 mg BID): 1 (16.7) Number (%); TEAE Somnolence ([2]; MAD 25 mg BID): 1 (16.7) Number (%); TEAE Swelling of eyelid ([2]; MAD 25 mg BID): 1 (16.7) Number (%); TEAE Thirst ([2]; MAD 25 mg BID): 1 (16.7) Number (%); TEAE Vascular access site pain ([2]; MAD 25 mg BID): 0 Number (%); TEAEs leading to IP discontinuation ([2]; MAD 25 mg BID): 1 (16.7) Number (%); Any CTCAE Grade ≥ 3 ([2]; MAD 75 mg BID): 0 Number (%); Any TEAE ([2]; MAD 75 mg BID): 2 (33.3) Number (%); Death ([2]; MAD 75 mg BID): 0 Number (%); SAE ([2]; MAD 75 mg BID): 0 Number (%); TEAE Anxiety ([2]; MAD 75 mg BID): 1 (16.7) Number (%); TEAE Contusion ([2]; MAD 75 mg BID): 0 Number (%); TEAE Dehydration ([2]; MAD 75 mg BID): 0 Number (%); TEAE Dizziness ([2]; MAD 75 mg BID): 1 (16.7) Number (%); TEAE Drug withdrawal headache ([2]; MAD 75 mg BID): 0 Number (%); TEAE Dysmenorrhea ([2]; MAD 75 mg BID): 1 (16.7) Number (%); TEAE Flushing ([2]; MAD 75 mg BID): 1 (16.7) Number (%); TEAE Headache ([2]; MAD 75 mg BID): 1 (16.7) Number (%); TEAE Musculoskeletal pain ([2]; MAD 75 mg BID): 0 Number (%); TEAE Myalgia ([2]; MAD 75 mg BID): 0 Number (%); TEAE Nausea ([2]; MAD 75 mg BID): 1 (16.7) Number (%); TEAE Oropharyngeal pain ([2]; MAD 75 mg BID): 0 Number (%); TEAE Rash ([2]; MAD 75 mg BID): 1 (16.7) Number (%); TEAE Skin injury ([2]; MAD 75 mg BID): 0 Number (%); TEAE Somnolence ([2]; MAD 75 mg BID): 0 Number (%); TEAE Swelling of eyelid ([2]; MAD 75 mg BID): 0 Number (%); TEAE Thirst ([2]; MAD 75 mg BID): 0 Number (%); TEAE Vascular access site pain ([2]; MAD 75 mg BID): 1 (16.7) Number (%); TEAEs leading to IP discontinuation ([2]; MAD 75 mg BID): 0 Number (%); Any CTCAE Grade ≥ 3 ([2]; MAD 150 mg QD): 0 Number (%); Any TEAE ([2]; MAD 150 mg QD): 4 (66.7) Number (%); Death ([2]; MAD 150 mg QD): 0 Number (%); SAE ([2]; MAD 150 mg QD): 0 Number (%); TEAE Anxiety ([2]; MAD 150 mg QD): 0 Number (%); TEAE Contusion ([2]; MAD 150 mg QD): 1 (16.7) Number (%); TEAE Dehydration ([2]; MAD 150 mg QD): 1 (16.7) Number (%); TEAE Dizziness ([2]; MAD 150 mg QD): 0 Number (%); TEAE Drug withdrawal headache ([2]; MAD 150 mg QD): 0 Number (%); TEAE Dysmenorrhea ([2]; MAD 150 mg QD): 0 Number (%); TEAE Flushing ([2]; MAD 150 mg QD): 0 Number (%); TEAE Headache ([2]; MAD 150 mg QD): 2 (33.3) Number (%); TEAE Musculoskeletal pain ([2]; MAD 150 mg QD): 0 Number (%); TEAE Myalgia ([2]; MAD 150 mg QD): 1 (16.7) Number (%); TEAE Nausea ([2]; MAD 150 mg QD): 0 Number (%); TEAE Oropharyngeal pain ([2]; MAD 150 mg QD): 0 Number (%); TEAE Rash ([2]; MAD 150 mg QD): 0 Number (%); TEAE Skin injury ([2]; MAD 150 mg QD): 0 Number (%); TEAE Somnolence ([2]; MAD 150 mg QD): 0 Number (%); TEAE Swelling of eyelid ([2]; MAD 150 mg QD): 0 Number (%); TEAE Thirst ([2]; MAD 150 mg QD): 0 Number (%); TEAE Vascular access site pain ([2]; MAD 150 mg QD): 0 Number (%); TEAEs leading to IP discontinuation ([2]; MAD 150 mg QD): 0 Number (%); incidence of AE ([2]; MAD cohorts, all JNT-517 doses (11 of 18)): 61.1%
